Reference: patent publication US7417144B2, “Factor Xa inhibitors” (Hoffman-La Roche Inc., priority 2005, dated 2008)

Each compound was assayed against T1, human factor Xa (Homo sapiens, UniProt P00742) (assay: Factor Xa chromogenic peptide substrate (S-2222) assay). Details: apparent Ki from IC50 by Cheng-Prusoff; enzyme 3 nM, substrate S-2222, pH 7.8, room temperature.
T1 construct: purchased Enzyme Research Laboratories
Format: biochemical
Method: Factor Xa activity was measured spectrophotometrically in microtiter plates in a final volume of 150 μl using the following conditions: Inhibition of human factor Xa (Enzyme Research Laboratories) was tested at an enzyme concentration of 3 nM using the chromogenic substrate S-2222 (Chromogenix AB, Mölndal, Sweden) at […]. The reaction kinetics of the enzyme and the substrate were linear with both time and the enzyme concentration. The inhibitors were dissolved in DMSO and tested at various concentrations up to 100 μM. The inhibitors were diluted using HNPT buffer consisting of HEPES 100 mM, NaCl 140 mM, PEG 6000 0.1% and Tween 80 0.02%, pH 7.8. The cleavage of S-2222 by human factor Xa was followed at 405 nm for 5 minutes at room temperature. The velocity of the reaction was determined by the autoreader from the slope of the linear regression fit to 7 time points (1 minute). The initial velocity for each inhibitor concentration was determined by the slope of at least 4 time points in the linear phase by a linear regression fit […]. Apparent dissociation constants Ki were calculated according to Cheng and Prusoff [Cheng, Y. C.; Prusoff, W. H. Relationship between the inhibition constant (Ki) and the concentration of the inhibitor that causes 50 percent inhibition (IC50) of an enzyme reaction. Biochem. Pharmacol. 1973, 22, 3099-3108.] based on the IC50 and the respective Km, determined previously (Ki=IC50/(1+S/Km)). The Km for the substrate used was determined under the conditions of the test with at least 5 substrate concentrations ranging from 0.5 to 15 times Km. [Lottenberg R, Hall J A, Blinder M, Binder E P, Jackson C M., The action of thrombin on peptide p-nitroanilide substrates. Substrate selectivity and examination of hydrolysis under different reaction conditions. Biochim Biophys Acta. 1983 Feb. 15; 742(3):539-57]. According to Eadie [Eadie G.S. The inhibition of cholinesterase by physostigmine and prostigmine. J. Biol. Chem. 1942, 146, 85-93.], the Km for S-2222 amounted to 613 μM.

T1 sequence (P00742 235-488 limits assumed): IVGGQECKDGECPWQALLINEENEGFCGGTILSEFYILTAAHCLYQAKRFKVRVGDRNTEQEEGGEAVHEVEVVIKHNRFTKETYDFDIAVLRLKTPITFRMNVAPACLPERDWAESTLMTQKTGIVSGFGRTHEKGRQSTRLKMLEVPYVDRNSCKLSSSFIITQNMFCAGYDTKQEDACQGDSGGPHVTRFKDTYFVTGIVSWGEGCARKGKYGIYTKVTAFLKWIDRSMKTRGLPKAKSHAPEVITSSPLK
T1 sequence (P00742 41-179 partner limits assumed): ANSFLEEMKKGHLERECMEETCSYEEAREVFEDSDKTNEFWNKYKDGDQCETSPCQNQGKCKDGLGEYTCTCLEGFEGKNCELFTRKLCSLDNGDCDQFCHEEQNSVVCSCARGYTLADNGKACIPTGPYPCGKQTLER

In order of rising Ki:
1. O=C(Nc1ccc(-n2ccccc2=O)cc1F)C1Cc2cccnc2CN1C(=O)Nc1ccc(Cl)cc1 (stereo not drawn) [Example 18, 5,8-Dihydro-6H-[1,7]naphthyridine-6,7-dicarboxylic acid 7-[(4-chloro-phenyl)-amide]6-{[2-fluoro-4-(2-oxo-2H-pyridin-1-yl)-phenyl]-amide}]  12 nM
2. Cn1ncc2c1CN(C(=O)Nc1ccc(Cl)cn1)[C@H]2C(=O)Nc1ccc(-n2ccccc2=O)cc1F [Example 3, (R)-1-Methyl-4,6-dihydro-1H-pyrrolo[3,4-c]pyrazole-4,5-dicarboxylic acid 5-[(5-chloro-pyridin-2-yl)-amide]4-{[2-fluoro-4-(2-oxo-2H-pyridin-1-yl)-phenyl]-amide}]  19 nM
3. O=C(Nc1ccc(-n2ccccc2=O)cc1F)C1Cc2cccnc2N1C(=O)Nc1ccc(Cl)cc1 (stereo not drawn) [Example 16, 2,3-Dihydro-pyrrolo[2,3-b]pyridine-1,2-dicarboxylic acid 1-[(4-chloro-phenyl)-amide]2-{[2-fluoro-4-(2-oxo-2H-pyridin-1-yl)-phenyl]-amide}]  51 nM
